Legend:
[1] = tested on: ventricular cells; test: Whole-cell membrane currents of isolated ventricular cells (patch-clamp, ramp-pulse protocol); type: cell-based, mouse; conditions: ventricular cells of both Kir6.1+/+ and Kir6.1-/- mice
Procedure: (§1) Kir6.1 is expressed most abundantly in the heart (24), and is present in cardiomyocytes (25). Therefore, electrophysiological properties of ventricular myocytes isolated from Kir6.1^+/+ and Kir6.1^−/− mice were compared. The quasi-steady-state membrane currents were recorded using a ramp-pulse protocol.
(§2) Briefly, single ventricular cells of the heart were enzymatically isolated and whole-cell membrane currents were recorded by the patch-clamp method (13). The pipette solution was composed of 20 mM KCl, 1 mM MgCl2, 1 mM phosphocreatine-K2, 110 mM K1-aspartate, 1 mM K2-ATP, 1.0 mM EGTA, 5 mM HEPES (pCa 8.0, pH 7.4). The external solution used was a HEPES-Tyrode solution containing 143 mM NaCl, 5.4 mM KCl, 1.8 mM CaCl2, 0.5 mM MgCl2, 0.33 mM NaHPO4, […], 5 mM HEPES (pH 7.4). Voltage- and current-clamp experiments in heart cells were performed at 36.0° C.

[2] = tested on: ventricular cells; test: Action potential recording in isolated ventricular cells (current-clamp); type: cell-based, mouse; conditions: for APD at 90% repolarization level (APD90): mean±SE
Procedure: as §1, §2

[3] = tested on: aorta smooth muscle cells; test: Whole-cell membrane currents of aorta smooth muscle cells; type: cell-based, mouse; conditions: for density of pinacidil-induced, glibenclamide-sensitive inward K+ current: held at -40 mV, high K+ (140 mM) solution, mean±SE
Procedure: Single smooth muscle cells of thoracic aorta were enzymatically isolated and electrophysiological studies were conducted in the same manner as performed in the cardiomyocytes.
The compositions of the extracellular high K^+ solution and the pipette solution used in this smooth muscle cell experiment were as follows. The external high-K^+ solution: 2.9 mM NaCl, 140 mM KCl, 2.2 mM CaCl2, 1.2 mM MgCl2, 14 mM glucose and 10 mM HEPES-KOH buffer (pH 7.4). The pipette solution: 140 mM KCl, 4 mM MgCl2, 1 mM ATP-K2, 10 mM EGTA and 10 mM HEPES-KOH solution (pH 7.2). The membrane current was measured at room temperature.
Effect of […] pinacidil was tested on whole-cell membrane currents of aorta smooth muscle cells held at −40 mV in high K^+ (140 mM) solution.

[4] = tested on: anesthetized mice; test: Induction of coronary spasm by methylergometrine in vivo (ECG of anesthetized mice)
Procedure: (§3) ECG recordings of conscious mice under unrestricted conditions were obtained using an implantable radio frequency transmitter (TA10ETA-F20) (DATA SCIENCES, St. Paul, Minn.), with subcutaneous leads placed in the conventional lead II position. ECGs of anesthetized mice and isolated hearts (Langendorff-perfused heart) were recorded with leads placed on the body surface (lead II) or epicardium.
(§4) To link dysregulation of vascular tonus and sudden death in Kir6.1^−/− mice, an examination was tried to induce vasospasm using methylergometrine, an ergot alkaloid that stimulates serotonergic receptors and directly triggers the vasoconstriction of vascular smooth muscles (26).

[5] = tested on: Langendorff-perfused hearts; test: Induction of coronary spasm by methylergometrine in vitro (ECG of Langendorff-perfused hearts); set-up: species or system mouse; conditions: 20 mg
Procedure: as §3, §4

[6] = tested on: anesthetized mice; test: Measurement of aortic blood pressure (mean arterial pressure) in anesthetized mice; type: in vivo, mouse; conditions: Kir6.1+/+ mice; intravenous 0.3 mg/kg; within 5 minutes; urethane anesthesia
Procedure: K^+ channel openers are known to lower arterial blood pressure by relaxing vascular smooth muscles by opening vascular KATP channels. The present inventors examined the vasodilation response to the K^+ channel opener pinacidil in Kir6.1^+/+ and Kir6.1^−/− mice, in vivo at first.
Hemodynamic measurements were carried out according to the method described by, Suzuki, et al. (12). Changes of mean arterial pressure (MAP) after intravenous injection of 0.3 mg/kg pinacidil are indicated on the ordinate. The points show mean±SE of 6 animals for both groups.

[7] = tested on: aortic rings; test: Aortic contraction in isolated aortic preparation (tension of thoracic aortic rings precontracted by norepinephrine); type: cell-based, mouse; conditions: precontracted by 0.1 μM norepinephrine, cumulative pinacidil
Procedure: The vasodilation response of thoracic aorta to the K^+ channel opener was further examined in vitro by measuring changes in the tension of aortic rings isolated from Kir6.1^+/+ and Kir6.1^−/− mice (FIG. 12). In the same manner as described by Suzuki et al. (13), mechanical function studies of isolated thoracic aorta were carried out. Briefly, the thoracic aorta without the endothelium was removed and cut into rings (4 mm in length). For isometric tension recording, the rings were mounted in a thermostatic organ bath. The bath was perfused with Krebs-Henseleit solution gassed with 95% O2/5% CO2. The aortic rings were precontracted by 0.1 μM norepinephrine, and pinacidil was added in a cumulative manner.

[8] = anesthetized Kir6.1-/- mice, intravenous injection 20 mg

COc1ccc(Cl)cc1C(=O)NCCc1ccc(S(=O)(=O)NC(=O)NC2CCCCC2)cc1 [glibenclamide]
block of pinacidil-induced outward current ([1]; 1 μM glibenclamide): blocked | reversal of pinacidil-induced APD90 shortening ([2]; addition of 1 μM glibenclamide after 100 μM pinacidil, Kir6.1+/+ and Kir6.1-/- cells): reversed to control levels | block of pinacidil-elicited inward K+ currents ([3]; Kir6.1+/+ smooth muscle cells): blocked

CC[C@@H](CO)NC(=O)[C@@H]1C=C2c3cccc4[nH]cc(c34)C[C@H]2N(C)C1 [methylergometrine]
significant changes in ECG or death (animals affected) ([4]; Kir6.1+/+ mice, intravenous injection): none of 7 | cardiac death concomitantly with changes in ECG (animals affected) ([4]; Kir6.1-/- mice, intravenous injection 20 mg): 5 Kir6.1^−/− mice out of 8 | depression of ST segments on ECG (animals affected) [4, 8]: 1 animal out of 8 | elevation of ST segments on ECG (animals affected) [4, 8]: 4 animals out of 8 | elevation of the ST segment in isolated hearts (hearts affected) ([5]; isolated hearts of Kir6.1+/+ mice): 0/5 | elevation of the ST segment in isolated hearts (hearts affected) ([5]; isolated hearts of Kir6.1-/- mice): 4/4

CC(N/C(=N\C#N)Nc1ccncc1)C(C)(C)C (centres unmarked) [pinacidil]
outward current (ATP-sensitive K+ current, IK,ATP) ([1]; pinacidil 1, 10 or 100 μM, 36.0° C): concentration-dependent increases of an outward current | APD at 90% repolarization level (APD90) ([2]; Kir6.1+/+ ventricular cells, after 100 μM pinacidil (before: 31.6±2.3 ms)): 18.3 ± 2.2 ms | APD at 90% repolarization level (APD90) ([2]; Kir6.1-/- ventricular cells, after 100 μM pinacidil (before: 31.1±4.2 ms)): 18.3 ± 3.9 ms | decrease in MAP [6]: about 30 mmHg | vasodilating effect ([7]; aortic rings from Kir6.1+/+ mice): concentration-dependent vasodilating effect | vasodilating effect ([7]; aortic rings from Kir6.1-/- mice): din not elicit any KATP channel-mediated vasodilating effect | density of pinacidil-induced, glibenclamide-sensitive inward K+ current ([3]; Kir6.1+/+ smooth muscle cells): 9.53±2.32 pA/pF | density of pinacidil-induced, glibenclamide-sensitive inward K+ current ([3]; Kir6.1-/- smooth muscle cells): 0.13±0.07 pA/pF

Reference: patent publication US7115797B2, “Mice lacking inward-rectifying potassium channel Kir6.1” (JCR Pharmaceuticals Co., Ltd., priority 2002, dated 2006)
